{"source": "patent US20220003741A1", "about": "“ORAL WASH FOR ORAL FLUID COLLECTION AND ANALYSIS AND METHODS OF USE THEREOF” (priority 2018, published 2022)", "origin": "cited, not measured here", "key": {"[1]": {"settings": "versus aripiprazole and dehydro aripiprazole"}, "[2]": {"assay": "not given", "remark": "listed apart in the source"}}, "data": [{"compound": "CN1CCCC1c1cccnc1", "note": "(centres unmarked) [nicotine]", "values": [{"measurement": "time to reach the brain after inhalation", "setting": "after inhalation, crosses the blood-brain barrier", "result": "10 to 20", "unit": "s"}, {"measurement": "elimination half-life of nicotine in the body", "setting": "in vivo", "result": "around two"}]}, {"compound": "O=C(O)CCCOc1ccc2c(c1)NC(=O)CC2", "note": "[OPC-3373]", "values": [{"measurement": "water solubility compared with parent compound aripiprazole and dehydro aripiprazole", "setting": "[1]", "result": "much more water soluble"}]}, {"compound": "CCCCCc1cc(O)c2c(c1)OC(C)(C)[C@@H]1CCC(C)=C[C@@H]21", "note": "[THC]", "values": [{"measurement": "fraction of THC excreted in the feces", "setting": "[2]; feces", "result": "More than 55%"}, {"measurement": "fraction of THC excreted in the urine", "setting": "[2]; urine", "result": "approximately 20%"}]}]}
